Source: the supplement of paper PMC10307832

Assays:
Experiment in all cases: relative viability (nuclei count vs DMSO), 5 days (fraction); higher = more cells survive
Pemetrexed + Pictilisib = compound: Nc1nc2[nH]cc(CCc3ccc(C(=O)N[C@@H](CCC(=O)O)C(=O)O)cc3)c2c(=O)[nH]1 [Pemetrexed] + CS(=O)(=O)N1CCN(Cc2cc3nc(-c4cccc5[nH]ncc45)nc(N4CCOCC4)c3s2)CC1 [Pictilisib] (partner 1 µM)
Summary of the method: (§1)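 After 5 days of treatment, lung cancer cells in 1536-well plates were fixed and stained in a single step (final 0.05% Triton X-100, 1% formaldehyde, 1 ug/ml Hoechst) and their nuclei counted on 4× images. Treatment had been applied by pin tool the day after seeding as one drug alone or as a fixed anchor-drug dose with five library-drug doses (not always all listed) in √10 steps. Relative viability is the nuclei count of treated wells divided by that of vehicle wells, and values are medians of duplicate plates.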

Idelalisib + AZD7762 = compound: CC[C@H](Nc1ncnc2[nH]cnc12)c1nc2cccc(F)c2c(=O)n1-c1ccccc1 [Idelalisib] + NC(=O)Nc1cc(-c2cccc(F)c2)sc1C(=O)N[C@H]1CCCNC1 [AZD7762] (partner 0.2 µM)
Summary of the method: as §1

Pemetrexed + Navitoclax = compound: Nc1nc2[nH]cc(CCc3ccc(C(=O)N[C@@H](CCC(=O)O)C(=O)O)cc3)c2c(=O)[nH]1 [Pemetrexed] + CC1(C)CCC(c2ccc(Cl)cc2)=C(CN2CCN(c3ccc(C(=O)NS(=O)(=O)c4ccc(N[C@H](CCN5CCOCC5)CSc5ccccc5)c(S(=O)(=O)C(F)(F)F)c4)cc3)CC2)C1 [Navitoclax] (partner 0.5 µM)
Summary of the method: as §1

Idelalisib + Alpelisib = compound: CC[C@H](Nc1ncnc2[nH]cnc12)c1nc2cccc(F)c2c(=O)n1-c1ccccc1 [Idelalisib] + Cc1nc(NC(=O)N2CCC[C@H]2C(N)=O)sc1-c1ccnc(C(C)(C)C(F)(F)F)c1 [Alpelisib] (partner 2 µM)
Summary of the method: as §1

Cell Line	relative viability (Pemetrexed + Pictilisib; first compound 0.002 µM)	relative viability (Pemetrexed + Pictilisib; first compound 0.006325 µM)	relative viability (Pemetrexed + Pictilisib; first compound 0.02 µM)	relative viability (Pemetrexed + Pictilisib; first compound 0.06325 µM)	relative viability (Pemetrexed + Pictilisib; first compound 0.2 µM)	relative viability (Idelalisib + AZD7762; first compound 0.04 µM)	relative viability (Idelalisib + AZD7762; first compound 0.1265 µM)	relative viability (Idelalisib + AZD7762; first compound 0.4 µM)	relative viability (Idelalisib + AZD7762; first compound 1.265 µM)	relative viability (Idelalisib + AZD7762; first compound 4 µM)	relative viability (Pemetrexed + Navitoclax; first compound 0.002 µM)	relative viability (Pemetrexed + Navitoclax; first compound 0.006325 µM)	relative viability (Pemetrexed + Navitoclax; first compound 0.02 µM)	relative viability (Pemetrexed + Navitoclax; first compound 0.06325 µM)	relative viability (Pemetrexed + Navitoclax; first compound 0.2 µM)	relative viability (Idelalisib + Alpelisib; first compound 0.04 µM)	relative viability (Idelalisib + Alpelisib; first compound 0.1265 µM)	relative viability (Idelalisib + Alpelisib; first compound 0.4 µM)	relative viability (Idelalisib + Alpelisib; first compound 1.265 µM)	relative viability (Idelalisib + Alpelisib; first compound 4 µM)
NCI-H1355	0.294	0.383	0.377	0.481	0.428	0.817	0.786	0.625	0.523	0.703	0.86	0.885	0.951	0.942	0.872	0.956	0.767	0.751	0.679	0.568
NCI-H727	0.398	0.399	0.415	0.378	0.369	0.625	0.574	0.578	0.379	0.704	0.422	0.474	0.583	0.428	0.527	0.643	0.69	0.499	0.588	0.622
NCI-H838	0.443	0.392	0.532	0.267	0.248	0.902	0.935	0.907	0.69	0.892	1.17	1.12	1.33	0.893	0.361	0.902	1.02	0.914	0.957	0.818
HCC-44	1.52	0.61	0.654	0.537	0.395	1.04	0.998	1.03	0.991	1.11	0.864	0.836	1.02	0.929	0.866	0.831	0.812	0.602	0.577	0.638
LK-2		0.472	0.654	0.466	0.41	0.637	0.395		0.27	0.371	0.835	0.844	0.823	0.8	0.592	1.16	1.17		1.09	1.11
HCC-827	0.74	0.973	0.929	0.95	0.664	0.216	0.212	0.31	0.153	0.199	0.926	0.964	1.13	1.02	0.908	0.977	0.968	0.92	0.894	0.506
EPLC-272H	0.375	0.348	0.409	0.326	0.325	0.202	0.171	0.28	0.124	0.153	1.24	1.05	1.19	1.12	1.05	0.617	0.9	0.767	0.74	0.669
NCI-H1703		0.248	0.29	0.287	0.264		0.124		0.0966	0.126	1.04	0.967	1.86	1.24	1.09	0.37	0.304	0.273	0.272	0.207
